Laboratory results: patent US6432413B1, “Functional improvements in Fahr disease” (Wayne State University, priority 1998, dated 2002)

Tests used:
Assay type in all cases: in vivo, human
[1] = test system: patient with Fahr disease; experiment: Previous drug treatments of the same Fahr disease patient; conditions: before the study
Text: Prior to initiating and throughout the study, they were maintained on the same doses of baclofen, pergolide, lorazepam, naproxen, diltiazem, probanthiline bromide, and hyoscyamine sulfate. They were placed on isosorbide dinitrate 2 months into the study for ischemic heart disease.

[2] = Side effects during treatment of the Fahr disease patient; conditions: 15 mg/kg once daily
Experimental: (§1) After obtaining baseline measurements and informed consent, the patient was begun on 15 mg/kg of disodium etidronate given once daily for two 6 month periods, separated by a 6 month period off of the drug, which was carried out as an internal control and to allow for normal bone mineralization. Serial neurologic examinations were performed by the same physician, and included three quantitative measurements: counting from 1-20, counting from 20-1, and walking 15 feet and back. Instructions were given with the same amount of encouragement for each of the serial measurements. Duplicate measures of counting 1-20 and walking taken two weeks apart were averaged to produce baseline values. There was little variation between the duplicate measures. Baseline and follow-up videotapes of the neurologic exam and CAT scans, to quantify the amount of cerebral calcification, were obtained in a uniform manner.
For example, they could button their shirts, which they could not do previously.

[3] = test system: patient with familial, idiopathic cerebral calcinosis of the basal ganglia (Fahr disease); experiment: Treatment of a patient with Fahr disease: serial neurologic examinations, timed speech and gait, Blessed Dementia Scale
Text: FIG. 2 is a series of graphs showing the effect of treatment on speech and gait. Timed measurements of speech (counting from 1-20 or 20-1) and gait (walking 15 feet and back) were made during two treatment cycles with disodium etidronate. The start and stop times indicate the times at which the medication was begun and discontinued, respectively. Each zero time point for counting 1-20 and walking 15 feet and back represents an average of 2 separate measurements, taken 2 weeks apart.
The patient is a person with hypertension and osteoarthritis who presented with transient right hemiparesis and dysarthria. […] Their major neurologic disabilities prior to treatment were slowness of gait and speech, rigidity, spasticity, cerebellar ataxia, dystonia, and dysphagia. They scored 6 points out of a possible 37 points on the right side of the Blessed Dementia Scale, which measures memory and concentration (6). A score of 0 points is without error. They had been having frequent emotional outbursts and inappropriate hypersexuality.
as §1

cerebral calcification = experiment: Quantitation of cerebral calcification by serial CAT scans
Text: FIG. 1 is a series of axial CAT scans and 3-dimensional reconstructions of basal ganglia calcification. Panels A-D show the extent of cerebral calcification on axial CAT scan images showing involvement of the basal ganglia, thalamus, and cerebellum. Panels E-H are 3-dimensional reconstructions of the basal ganglia, thalami, and pineal gland in different projections. The patient is directly facing the viewer in Panel E, turning to the left by 30 degrees in Panel F, and by 60 degrees in Panel G. Panel H is a projection looking from above and behind the patient, in the same orientation as the CAT scans described above. […]
FIG. 3 is a graph showing quantitation of cerebral calcification. […]
Quantitative measurements of cerebral calcification were obtained using contiguous regions of calcification, defined as those containing pixels greater than 50 Hounsfield units, on each 3 mm coronal image. […]
After obtaining baseline measurements and informed consent, the patient was begun on 15 mg/kg of disodium etidronate given once daily for two 6 month periods, separated by a 6 month period off of the drug, which was carried out as an internal control and to allow for normal bone mineralization. Serial neurologic examinations were performed by the same physician, and included three quantitative measurements: counting from 1-20, counting from 20-1, and walking 15 feet and back. […]

[4] = second six month course of treatment

Molecule: NCC(CC(=O)O)c1ccc(Cl)cc1 (centres unmarked) [baclofen]
- improvement with previous drug treatment [1]: minimal improvement

Molecule: CC(O)(P(=O)(O)O)P(=O)(O)O [disodium etidronate]
- side effects [2]: no side effects from the medication, except for transient elevations in serum phosphate
- gait and speech after stopping the medication ([3]; 6 month period off of the drug): significant deterioration in their gait, but little loss in the gains made with their speech
- speech, attention span, emotional outbursts and inappropriate sexual behavior as felt by the patient's family ([3]; after one month on 15 mg/kg once daily): their speech had become clearer, their attention span improved, and their emotional outbursts and inappropriate sexual behavior ceased
- bradykinesia and emotional lability ([3]; after treatment): clearly improved
- spasticity, cerebellar ataxia, and dystonia ([3]; after treatment): unchanged
- Blessed Dementia Scale score ([3]; eighteen months after beginning treatment, previous score 6, 0 points is without error): 2
- gait and fine motor skills ([3]; first treatment period, 15 mg/kg once daily): His gait also improved, together with fine motor skills
- increase in the speed of speech and gait (counting 1-20, 20-1, walking 15 feet and back) ([3]; over the first six months of treatment): two-fold increase
- counting from 1-20 [3, 4]: improvement
- counting from 20-1 [3, 4]: some deterioration
- gait [3, 4]: again improved
- speech [3, 4]: did not change appreciably
- other measurements of the speed of motor movement (rapid finger tapping and knee patting) ([3]; videotape before medication vs end of first six month treatment): improved considerably
- speech (rate and clarity) ([3]; within four months of treatment, 15 mg/kg once daily): their speech became more rapid and clear
- shape and size of the cerebral calcification, qualitative comparison of CAT scans and 3-dimensional reconstructions (cerebral calcification; after treatment): did not demonstrate any change
- brain calcium content, quantitative measurements from serial CAT scans (density x area) (cerebral calcification; before treatment vs after first (6 months) and second (18 months) treatment periods): did not show any reduction in brain calcium content, but perhaps a small increase

Molecule: O=C1Nc2ccc(Cl)cc2C(c2ccccc2Cl)=NC1O (centres unmarked) [lorazepam]
- improvement with previous drug treatment [1]: minimal improvement

Molecule: CCCN1C[C@H](CSC)C[C@@H]2c3cccc4[nH]cc(c34)C[C@H]21 [pergolide]
- improvement with previous drug treatment [1]: minimal improvement

Molecule: carbidopa-levodopa
- improvement with previous drug treatment [1]: minimal improvement
